Data as given in PMC12057359, “Inhibitory effect of copper chelators on the budding in Candida albicans” (Antimicrobial Agents and Chemotherapy, 2025).

Tests used:
C. albicans JCM1542 [1] = assay: iHOPE antimicrobial microdilution assay (turbidity OD600); assay type: cell-based, Candida albicans
C. glabrata JCM3761 [2] = assay: as above; assay type: cell-based, Candida glabrata; settings: Nakaseomyces glabratus, JCM3761, 24 h, read-out: IC50 against C. glabrata JCM3761
C. tropicalis JCM1541 = assay: as above; assay type: cell-based; settings: Candida tropicalis, JCM1541, 24 h, read-out: IC50 against C. tropicalis JCM1541
C. auris Ci6684 = assay: as above; assay type: cell-based, Candida auris; settings: Candidozyma auris, CI6684, 24 h, read-out: IC50 against C. auris Ci6684
C. auris VPCI673 = assay: as above; assay type: cell-based, Candida auris; settings: Candidozyma auris, VPCI673, 24 h, read-out: IC50 against C. auris VPCI673
A. fumigatus Af293 = assay: iHOPE antimicrobial microdilution assay; assay type: cell-based, Aspergillus fumigatus; settings: Aspergillus fumigatus, AF293, read-out: IC50 against A. fumigatus Af293
P. oryzae Kita-1 = assay: microbe, parasite or virus in culture; assay type: cell-based, Pyricularia oryzae; settings: Pyricularia oryzae, KITA1, read-out: IC50 against P. oryzae Kita-1
S. aureus 209P = assay: iHOPE antimicrobial microdilution assay; assay type: cell-based, Staphylococcus aureus; settings: Staphylococcus aureus, 209P, read-out: IC50 against S. aureus 209P
E. coli HO-141 = assay: iHOPE antimicrobial microdilution assay; assay type: cell-based, Escherichia coli; settings: Escherichia coli, HO141, read-out: IC50 against E. coli HO-141
[3] = iHOPE in vitro cytotoxicity assessment (Cell Count Reagent SF); assay type: cell-based, human; settings: human; SD in parentheses, n = 3; read-out: IC50 against HL-60 RCB0041 (cytotoxicity)
Procedure: (§5) The method for in vitro cytotoxicity assessment using Cell Count Reagent SF (Nacalai Tesque) has been described previously ([15]). […] Test compounds were added to the culture medium, and then the plates were incubated at 28°C for 24 h.

HL-60 RCB0041 = assay: as above; assay type: cell-based, human; settings: up to / at 30 µM
Procedure: as §5

C. albicans JCM1542 [4] = assay type: cell-based, Candida albicans
C. glabrata JCM3761 [5] = assay: Intracellular ATP measurement (BacTiter-Glo); assay type: cell-based, Candida glabrata; settings: C. glabrata JCM3761, 6 h, dose range 0.010–0.3 µM
Procedure: (§1) Intracellular ATP measurement
(§2) Intracellular ATP levels were examined using the protocol outlined in a previous study (27). C. glabrata JCM3761 was precultured overnight in YPD medium [1% yeast extract (Thermo Fisher Scientific), 2% peptone (NIHON PHARMACEUTICAL, Osaka, Japan), and 2% D-glucose]. A 200-µL inoculum suspension containing 0.1% of a 0.5 McFarland standard suspension was prepared and seeded into a 96-well plate. […] The luminescence was recorded using a Varioskan LUX Multimode Microplate Reader.
(§3) Reactive oxygen species (ROS) measurement
(§4) ROS levels were examined using the method described in a previous paper (27). The overnight preculture of C. albicans JCM1542 was washed and resuspended in 5 mL of PBS buffer. 2’,7’- dichlorodihydrofluorescein diacetate (DCFH-DA; Cayman Chemical, MI, US) was added at a concentration of 50 µM. After incubation at 28 °C for 30 min, the fungi were washed three times with PBS buffer to remove the residual extracellular dye and seeded at a density of 1×10^6 cells/well in 50 µL of PBS, followed by the sample addition. After 60 min of incubation, the fluorescence intensity (excitation wavelength/emission wavelength = 485/535 nm) was measured using Varioskan LUX Multimode Microplate Reader.

C. albicans JCM1542 [6] = assay: Reactive oxygen species (ROS) measurement (DCFH-DA); assay type: cell-based, Candida albicans; settings: 60 min, dose range 0.010–0.3 µM
Procedure: as §1, §2, §3, §4

C. albicans IFO1601 = test system: C. albicans IFO1601; parameters: method as in earlier work; settings: cited from earlier work

[C-]#[N+][C@H](C)CC(=O)NC[C@@H]1CC[C@H](NC(=O)C[C@@H](C)[N+]#[C-])C(O)O1 (stereo partly shown) [SF2768]
effect of excessive amounts of other metal ions (iron, zinc, manganese, magnesium) on the activity (C. albicans JCM1542 [1]; 0.03 µM SF2768, metal chlorides, 24 h): did not affect the activity
IC50 (C. albicans JCM1542 [1]; Candida albicans, JCM1542, 24 h, read-out: IC50 against C. albicans JCM1542): 10 nM
selectivity index (C. albicans JCM1542 [1]; HL-60 cytotoxicity versus C. albicans IC50): > 3,000
IC50 (C. glabrata JCM3761 [2]): 5.4 nM
IC50 (C. tropicalis JCM1541): 13 nM
IC50 (C. auris Ci6684): 20 nM
IC50 (C. auris VPCI673): 49 nM
IC50 (A. fumigatus Af293): 120 nM
IC50 (P. oryzae Kita-1): > 30000 nM
IC50 (S. aureus 209P): 500 nM
IC50 (E. coli HO-141): > 30000 nM
IC50 [3]: > 30000 nM
cytotoxicity to HL-60 cells (in words) (HL-60 RCB0041): without any cytotoxicity
effect on farnesol-induced yeast growth of C. albicans (C. albicans JCM1542 [4]): clearly inhibited this effect
morphological change induced in C. albicans (C. albicans JCM1542 [4]): few branching or lateral yeasts were observed, and only minimal hyphal growth was observed
concentration at which the hyphal form of C. albicans was predominant (C. albicans JCM1542 [4]; C. albicans JCM1542): ≥ 0.030 µM
intracellular level of ATP (C. glabrata JCM3761 [5]): did not alter the amount
intracellular level of reactive oxygen species (ROS) (C. albicans JCM1542 [6]): did not alter the amount
zone of inhibition against C. albicans IFO1601 (C. albicans IFO1601): faint zone of inhibition
